Measured values published in patent publication US20170190705A1, “Compositions and Methods for Inhibiting BMP” (THE BRIGHAM AND WOMAN'S HOSPITAL, INC., priority 2014, published 2017).

What was measured:
Type in all cases: biochemical
EPHB4 = molecular target: T1, EPHB4 (Homo sapiens, UniProt P54760); assay: Kinome profiling EPHB4; settings: read-out: Inhibitory activity EPHB4; for inhibition at 0.1 µM: 100 nM
T1 sequence (P54760 16-987): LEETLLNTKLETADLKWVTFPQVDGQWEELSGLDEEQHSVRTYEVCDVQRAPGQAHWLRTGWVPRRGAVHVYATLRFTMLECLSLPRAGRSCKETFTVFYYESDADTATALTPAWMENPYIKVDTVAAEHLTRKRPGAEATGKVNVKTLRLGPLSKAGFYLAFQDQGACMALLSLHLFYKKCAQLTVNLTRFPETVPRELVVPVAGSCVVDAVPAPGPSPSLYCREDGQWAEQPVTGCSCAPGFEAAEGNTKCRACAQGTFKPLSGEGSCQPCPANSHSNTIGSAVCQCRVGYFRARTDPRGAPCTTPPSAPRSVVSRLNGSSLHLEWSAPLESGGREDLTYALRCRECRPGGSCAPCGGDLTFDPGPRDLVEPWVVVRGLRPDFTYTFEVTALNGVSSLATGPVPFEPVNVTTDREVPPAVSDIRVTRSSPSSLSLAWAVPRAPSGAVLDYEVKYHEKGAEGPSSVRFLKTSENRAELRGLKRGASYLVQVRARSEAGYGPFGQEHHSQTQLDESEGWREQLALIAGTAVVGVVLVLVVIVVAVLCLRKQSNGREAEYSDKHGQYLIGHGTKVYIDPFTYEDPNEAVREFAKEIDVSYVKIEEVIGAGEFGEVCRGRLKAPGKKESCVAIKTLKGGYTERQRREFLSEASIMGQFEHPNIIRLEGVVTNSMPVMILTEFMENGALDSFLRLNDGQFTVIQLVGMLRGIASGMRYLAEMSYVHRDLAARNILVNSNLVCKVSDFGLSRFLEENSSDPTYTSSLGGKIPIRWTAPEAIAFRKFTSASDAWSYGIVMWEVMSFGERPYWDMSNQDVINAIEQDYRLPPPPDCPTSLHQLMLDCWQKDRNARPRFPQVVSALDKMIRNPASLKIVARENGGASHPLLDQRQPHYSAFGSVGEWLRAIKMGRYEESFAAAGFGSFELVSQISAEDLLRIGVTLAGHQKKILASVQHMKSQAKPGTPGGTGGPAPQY
Description: (§1) . The kinome-wide selectivity was determined following the methods previously reported by Mohedas et al., ACS Chem Biol 2013, 8, 1291-1302 and Sanvitale et al., PLoS One 2013, 8, e62721.

AURORA-C = molecular target: T2, AURORA-C (Homo sapiens, UniProt Q9UQB9); assay: Kinome profiling AURORA-C; settings: read-out: Inhibitory activity AURORA-C; for inhibition at 0.1 µM: 100 nM
T2 sequence (Q9UQB9 1-309): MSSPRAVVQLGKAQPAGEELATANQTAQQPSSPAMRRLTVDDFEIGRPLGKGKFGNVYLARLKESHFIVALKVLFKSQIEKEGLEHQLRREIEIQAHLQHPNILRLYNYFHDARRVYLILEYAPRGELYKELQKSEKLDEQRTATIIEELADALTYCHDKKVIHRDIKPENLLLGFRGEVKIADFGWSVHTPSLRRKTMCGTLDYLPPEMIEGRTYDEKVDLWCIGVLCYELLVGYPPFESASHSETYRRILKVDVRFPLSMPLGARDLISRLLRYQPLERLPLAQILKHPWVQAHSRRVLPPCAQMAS
Description: as §1

IKK-ε = molecular target: T3, IKK-ε (Homo sapiens, UniProt Q14164); assay: Kinome profiling IKK-ε; settings: read-out: Inhibitory activity IKK-ε; for inhibition at 0.1 µM: 100 nM
T3 sequence (Q14164 1-716): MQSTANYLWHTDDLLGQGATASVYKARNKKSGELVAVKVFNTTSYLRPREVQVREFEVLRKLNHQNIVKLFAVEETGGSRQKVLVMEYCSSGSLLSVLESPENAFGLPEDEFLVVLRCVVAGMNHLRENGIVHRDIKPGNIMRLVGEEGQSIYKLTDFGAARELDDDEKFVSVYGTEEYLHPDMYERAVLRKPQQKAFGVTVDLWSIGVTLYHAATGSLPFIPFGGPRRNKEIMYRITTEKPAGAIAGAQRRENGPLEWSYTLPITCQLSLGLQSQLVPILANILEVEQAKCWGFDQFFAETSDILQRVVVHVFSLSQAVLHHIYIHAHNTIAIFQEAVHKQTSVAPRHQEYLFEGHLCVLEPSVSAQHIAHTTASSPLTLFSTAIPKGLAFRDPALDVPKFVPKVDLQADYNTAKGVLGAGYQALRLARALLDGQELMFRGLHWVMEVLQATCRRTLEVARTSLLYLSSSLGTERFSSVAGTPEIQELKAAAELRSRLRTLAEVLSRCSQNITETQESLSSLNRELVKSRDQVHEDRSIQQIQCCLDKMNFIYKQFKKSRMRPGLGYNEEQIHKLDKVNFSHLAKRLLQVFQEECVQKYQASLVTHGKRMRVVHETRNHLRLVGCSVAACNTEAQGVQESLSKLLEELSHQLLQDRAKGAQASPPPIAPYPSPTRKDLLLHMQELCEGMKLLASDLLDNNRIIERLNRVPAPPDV
Description: as §1

CSK = CSK (Homo sapiens, UniProt P41240); assay: Kinome profiling CSK; settings: read-out: Inhibitory activity CSK; for inhibition at 0.1 µM: 100 nM
CSK, sequence (P41240 whole entry): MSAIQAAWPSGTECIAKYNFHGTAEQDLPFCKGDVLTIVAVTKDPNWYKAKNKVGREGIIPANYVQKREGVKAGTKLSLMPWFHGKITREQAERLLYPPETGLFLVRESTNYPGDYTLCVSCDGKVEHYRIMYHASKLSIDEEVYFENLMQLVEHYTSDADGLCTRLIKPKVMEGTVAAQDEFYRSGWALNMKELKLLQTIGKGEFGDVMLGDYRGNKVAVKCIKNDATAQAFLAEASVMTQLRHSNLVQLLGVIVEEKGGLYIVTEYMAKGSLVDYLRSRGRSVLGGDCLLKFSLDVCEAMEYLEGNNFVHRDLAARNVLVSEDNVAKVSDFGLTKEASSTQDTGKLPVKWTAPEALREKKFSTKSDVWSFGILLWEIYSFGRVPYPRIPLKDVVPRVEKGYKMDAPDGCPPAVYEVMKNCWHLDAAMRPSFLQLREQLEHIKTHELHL
Description: as §1

COc1cc(-c2cc(-c3ccc(N4CCNCC4)cc3)cnc2C)cc(OC)c1OC [Compound 10, 1-(4-(6-methyl-5-(3,4,5-trimethoxyphenyl)pyridin-3-yl)phenyl)piperazine]
inhibition at 0.1 µM (EPHB4): 5% | inhibition at 1 µM (EPHB4): 8% | inhibition at 0.1 µM (AURORA-C): 1% | inhibition at 1 µM (AURORA-C): 1% | inhibition at 0.1 µM (IKK-ε): 2% | inhibition at 1 µM (IKK-ε): 2% | inhibition at 0.1 µM (CSK): 4% | inhibition at 1 µM (CSK): 5%

COc1cc(-c2cc(-c3ccc(N4CCNCC4)cc3)cnc2N)cc(OC)c1OC [Compound 15, 5-(4-(piperazin-1-yl)phenyl)-3-(3,4,5-trimethoxyphenyl)pyridin-2-amine]
inhibition at 0.1 µM (EPHB4): 7% | inhibition at 1 µM (EPHB4): 45% | inhibition at 0.1 µM (AURORA-C): 3% | inhibition at 1 µM (AURORA-C): 7% | inhibition at 0.1 µM (IKK-ε): 1% | inhibition at 1 µM (IKK-ε): 20% | inhibition at 0.1 µM (CSK): 10% | inhibition at 1 µM (CSK): 36%
